Experimental findings from ChEMBL document CHEMBL6120968, “Discovery of Thiadiazoleamide Derivatives as Potent, Selective, and Orally Available Antagonists Disrupting Androgen Receptor Homodimer” (J Med Chem, 2024) are described below.

The nature of series [1]: AUC (0 to infinity) in rat at 20 mg/kg, po by LC-MS/MS analysis. It is filed as ADME, organism-based. As to conditions: in vivo.
Series [2] is described as follows: AUC (0 to t) in rat at 20 mg/kg, po by LC-MS/MS analysis. It is filed as ADME, organism-based. As to conditions: in vivo.
The nature of series [3]: MRTlast in rat at 20 mg/kg, po by LC-MS/MS analysis. The class given is ADME, organism-based. As to conditions: in vivo.
In series [4] the target is Androgen receptor (Homo sapiens, UniProt P10275, F877L). The series is described as follows: Antagonist activity at Androgen receptor F877L mutant in human HEK293T cells cotransfected with MMTV-luc and renilla plasmid incubated for 24 hrs by Dual luciferase assay. It is filed as cell-based.
A short description of series [5]: Acute toxicity in male CB17.SCID mouse implanted with human LNCaP cells assessed as abnormal behavior at 1250 mg/kg, po measured within 14 days. The class given is organism-based. As to conditions: in vivo, 336 h, time 14 day.
The nature of series [6]: Microsomal stability in human liver microsome assessed as parent compound remaining at 60 mins in presence of NADPH and UDPGA by HPLC-MS/MS analysis. It is filed as ADME. As to conditions: liver microsomes, read-out: Stability.
Series [7] in a line: Microsomal stability in rat liver microsome assessed as parent compound remaining at 60 mins in presence of NADPH and UDPGA by HPLC-MS/MS analysis. The class given is ADME. As to conditions: liver microsomes, read-out: Stability. In general terms: Liver microsomes are vesicles of endoplasmic reticulum, rich in cytochrome P450 enzymes.
The nature of series [8]: Microsomal stability in human liver microsome assessed as half life measured upto 60 mins in presence of NADPH and UDPGA by HPLC-MS/MS analysis. The class given is ADME. As to conditions: liver microsomes.
Series [9] in a line: Microsomal stability in monkey liver microsome assessed as intrinsic clearance measured upto 60 mins in presence of NADPH and UDPGA by HPLC-MS/MS analysis. As to conditions: rhesus monkey, liver microsomes, read-out: CLH. It is filed as ADME, Macaca mulatta.
Series [10] addresses T1, Mineralocorticoid receptor (Homo sapiens, UniProt P08235).
T1 sequence (P08235 whole entry): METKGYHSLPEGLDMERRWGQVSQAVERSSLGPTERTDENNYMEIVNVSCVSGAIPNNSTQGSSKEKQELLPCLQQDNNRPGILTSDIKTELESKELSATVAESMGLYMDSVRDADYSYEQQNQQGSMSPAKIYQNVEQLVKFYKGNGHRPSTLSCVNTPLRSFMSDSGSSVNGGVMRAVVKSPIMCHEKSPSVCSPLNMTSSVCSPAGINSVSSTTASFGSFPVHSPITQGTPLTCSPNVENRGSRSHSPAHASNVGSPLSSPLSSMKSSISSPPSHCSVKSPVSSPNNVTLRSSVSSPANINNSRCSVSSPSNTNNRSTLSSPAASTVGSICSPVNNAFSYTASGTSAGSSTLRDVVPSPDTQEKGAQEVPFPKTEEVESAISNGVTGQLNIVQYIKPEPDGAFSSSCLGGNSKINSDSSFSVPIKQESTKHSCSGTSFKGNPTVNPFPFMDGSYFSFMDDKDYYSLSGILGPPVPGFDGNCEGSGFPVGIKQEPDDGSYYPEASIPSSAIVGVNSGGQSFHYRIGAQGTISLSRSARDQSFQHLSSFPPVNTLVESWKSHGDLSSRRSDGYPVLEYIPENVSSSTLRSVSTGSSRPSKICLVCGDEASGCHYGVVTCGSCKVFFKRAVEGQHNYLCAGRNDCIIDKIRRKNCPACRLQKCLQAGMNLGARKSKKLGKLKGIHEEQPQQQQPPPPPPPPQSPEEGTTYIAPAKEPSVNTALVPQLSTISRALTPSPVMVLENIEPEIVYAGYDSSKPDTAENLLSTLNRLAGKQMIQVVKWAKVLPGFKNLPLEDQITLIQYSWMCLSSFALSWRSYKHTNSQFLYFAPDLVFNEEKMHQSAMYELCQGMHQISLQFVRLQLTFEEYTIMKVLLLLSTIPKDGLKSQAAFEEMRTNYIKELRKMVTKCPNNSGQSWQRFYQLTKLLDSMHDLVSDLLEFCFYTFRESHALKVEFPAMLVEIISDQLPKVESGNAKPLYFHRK
In words: Agonist activity at Mineralocorticoid receptor (unknown origin).

Series [11] concerns the target T2, Progesterone receptor (Homo sapiens, UniProt P06401).
T2 sequence (P06401 whole entry): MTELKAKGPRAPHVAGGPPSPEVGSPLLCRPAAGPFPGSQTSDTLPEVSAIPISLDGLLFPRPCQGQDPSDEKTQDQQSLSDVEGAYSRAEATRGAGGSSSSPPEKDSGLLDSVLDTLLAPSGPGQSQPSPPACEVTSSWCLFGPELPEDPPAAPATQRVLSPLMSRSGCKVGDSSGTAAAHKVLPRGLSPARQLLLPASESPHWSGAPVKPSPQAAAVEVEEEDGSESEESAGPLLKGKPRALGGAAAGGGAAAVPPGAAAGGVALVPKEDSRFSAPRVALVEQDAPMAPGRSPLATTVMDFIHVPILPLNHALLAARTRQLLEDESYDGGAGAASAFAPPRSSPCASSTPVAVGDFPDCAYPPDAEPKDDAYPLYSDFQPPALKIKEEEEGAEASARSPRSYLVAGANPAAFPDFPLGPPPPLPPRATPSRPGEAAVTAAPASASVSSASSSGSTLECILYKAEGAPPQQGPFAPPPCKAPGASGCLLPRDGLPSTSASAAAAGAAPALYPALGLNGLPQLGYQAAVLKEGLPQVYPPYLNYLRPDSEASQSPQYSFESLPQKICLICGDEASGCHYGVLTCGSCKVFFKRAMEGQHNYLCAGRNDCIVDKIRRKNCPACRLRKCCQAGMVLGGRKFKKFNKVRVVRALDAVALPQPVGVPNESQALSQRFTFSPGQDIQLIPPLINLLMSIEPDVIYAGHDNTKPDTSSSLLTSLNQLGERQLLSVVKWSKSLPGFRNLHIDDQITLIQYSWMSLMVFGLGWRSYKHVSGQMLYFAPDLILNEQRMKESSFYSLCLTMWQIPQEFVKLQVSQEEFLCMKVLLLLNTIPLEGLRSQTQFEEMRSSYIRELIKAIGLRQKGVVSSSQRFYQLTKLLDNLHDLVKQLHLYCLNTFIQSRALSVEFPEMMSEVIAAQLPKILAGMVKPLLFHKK
The series is described as follows: Agonist activity at progesterone receptor (unknown origin).

A short description of series [12]: Acute toxicity in male CB17.SCID mouse implanted with human LNCaP cells assessed as body weight loss at 1250 mg/kg, po measured within 14 days. As to conditions: in vivo, 336 h, time 14 day. It is filed as organism-based.

For orientation: AUC(0-inf) means total exposure, with the tail of the curve extrapolated. The term AUC(0-t) denotes exposure summed from dosing to a finite time, without extrapolation to infinity. Broadly, the MRT last is the average time that molecules of a dose stay in the body. One may read the IC50 as the point on the concentration scale where inhibition reaches its midpoint. What is called half-life is the time needed for the level to fall by half in the phase considered.

Where only a bound is given, the exact number is not on record here.

Androgen receptor, sequence (P10275 whole entry F877L): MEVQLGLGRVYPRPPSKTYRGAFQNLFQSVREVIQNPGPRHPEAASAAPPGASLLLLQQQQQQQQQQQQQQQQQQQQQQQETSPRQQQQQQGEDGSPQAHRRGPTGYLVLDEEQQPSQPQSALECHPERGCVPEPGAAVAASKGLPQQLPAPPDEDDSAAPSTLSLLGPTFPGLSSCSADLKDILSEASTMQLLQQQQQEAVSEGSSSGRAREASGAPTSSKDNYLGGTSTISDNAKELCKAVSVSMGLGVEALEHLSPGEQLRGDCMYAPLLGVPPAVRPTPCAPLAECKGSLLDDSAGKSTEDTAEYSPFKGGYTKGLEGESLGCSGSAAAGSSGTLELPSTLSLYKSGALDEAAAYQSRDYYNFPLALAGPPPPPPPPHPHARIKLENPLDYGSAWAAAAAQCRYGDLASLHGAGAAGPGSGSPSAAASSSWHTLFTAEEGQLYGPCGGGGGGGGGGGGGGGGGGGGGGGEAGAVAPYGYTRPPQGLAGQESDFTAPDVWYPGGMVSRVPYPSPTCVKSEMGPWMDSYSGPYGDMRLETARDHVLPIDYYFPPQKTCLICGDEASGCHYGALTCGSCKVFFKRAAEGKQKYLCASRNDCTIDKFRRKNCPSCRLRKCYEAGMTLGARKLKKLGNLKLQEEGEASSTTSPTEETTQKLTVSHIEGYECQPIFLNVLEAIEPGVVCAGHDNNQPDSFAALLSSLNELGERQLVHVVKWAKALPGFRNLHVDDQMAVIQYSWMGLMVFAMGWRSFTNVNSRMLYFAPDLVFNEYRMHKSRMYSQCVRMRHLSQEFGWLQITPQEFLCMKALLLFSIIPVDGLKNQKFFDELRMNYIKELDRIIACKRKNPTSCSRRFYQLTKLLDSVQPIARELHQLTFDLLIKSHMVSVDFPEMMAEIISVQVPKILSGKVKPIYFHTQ

As for `Cc1oc(-c2cccc(C(F)(F)F)c2)cc1C(=O)Nc1nc(CN2CCOCC2)ns1`, in series [1], the AUC(0-inf) was found to be 22100 ng·h/mL. Further, the AUC(0-t) in [2] was found to be 20500 ng·h/mL. Moreover, the MRT last in [3] was 6.65 h. For the same molecule, the concentration for half-maximal inhibition (IC50) in [4] is 0.01 µM; in [10], more than 10 µM; in series [11], more than 10 µM. In addition, the Activity result in series [5] and in series [12] was “Non-toxic” in each case. In addition, the remaining at 1 h in [6] came to 29.7%; in series [7] it was 22.5%. Further, in series [8], the half-life turned out to be 0.618 h. Also, the microsomal CLint in series [9] is 7.3 µL/min/mg.
